target: T1, Recombinant human KIF18A (1-467His-tagged) protein (Homo sapiens, UniProt Q8NI77); experiment: KIF18A enzyme assay (microtubule-stimulated ATPase activity, ADP-Glo); assay type: biochemical; conditions: 30 nM KIF18A, 75 μM ATP, 30 μg/mL pig microtubules; read-out: Inhibitory activity against KIF18A IC50
T1 construct: Recombinant human KIF18A (1-467His-tagged) protein; His; made in house
Summary of the method: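 Buffer 15 mM Tris pH 7.5, 10 mM MgCl2, 0.01% Pluronic F-68, 1 μM paclitaxel, 30 μg/mL pig microtubules; reactions at room temperature. IC50 from inhibition relative to DMSO.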

T1 sequence (Q8NI77 1-467): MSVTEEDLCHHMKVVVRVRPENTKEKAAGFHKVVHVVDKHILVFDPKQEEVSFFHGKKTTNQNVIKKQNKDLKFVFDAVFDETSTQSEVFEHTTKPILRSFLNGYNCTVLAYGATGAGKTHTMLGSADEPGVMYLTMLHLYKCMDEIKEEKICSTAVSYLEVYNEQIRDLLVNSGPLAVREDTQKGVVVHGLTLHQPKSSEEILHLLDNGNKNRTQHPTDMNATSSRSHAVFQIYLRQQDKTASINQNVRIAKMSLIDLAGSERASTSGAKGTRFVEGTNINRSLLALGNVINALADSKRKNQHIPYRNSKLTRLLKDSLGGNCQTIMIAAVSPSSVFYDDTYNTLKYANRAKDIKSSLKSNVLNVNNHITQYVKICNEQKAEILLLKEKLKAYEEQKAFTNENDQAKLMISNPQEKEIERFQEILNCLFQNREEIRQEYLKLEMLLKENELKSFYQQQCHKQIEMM
T1 sequence (P02550 whole entry partner): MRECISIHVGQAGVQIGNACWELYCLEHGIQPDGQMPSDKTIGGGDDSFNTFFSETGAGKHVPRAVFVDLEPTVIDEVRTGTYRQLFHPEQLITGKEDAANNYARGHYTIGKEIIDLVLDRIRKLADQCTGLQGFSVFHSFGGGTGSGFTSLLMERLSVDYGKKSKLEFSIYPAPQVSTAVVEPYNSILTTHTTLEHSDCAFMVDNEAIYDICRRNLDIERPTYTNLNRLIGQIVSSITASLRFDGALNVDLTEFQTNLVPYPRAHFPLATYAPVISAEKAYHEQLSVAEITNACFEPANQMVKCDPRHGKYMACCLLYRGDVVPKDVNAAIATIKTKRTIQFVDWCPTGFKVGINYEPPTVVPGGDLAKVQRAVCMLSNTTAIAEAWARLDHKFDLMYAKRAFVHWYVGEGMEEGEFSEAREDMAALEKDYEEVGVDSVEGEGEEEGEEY
T1 sequence (P02554 whole entry partner): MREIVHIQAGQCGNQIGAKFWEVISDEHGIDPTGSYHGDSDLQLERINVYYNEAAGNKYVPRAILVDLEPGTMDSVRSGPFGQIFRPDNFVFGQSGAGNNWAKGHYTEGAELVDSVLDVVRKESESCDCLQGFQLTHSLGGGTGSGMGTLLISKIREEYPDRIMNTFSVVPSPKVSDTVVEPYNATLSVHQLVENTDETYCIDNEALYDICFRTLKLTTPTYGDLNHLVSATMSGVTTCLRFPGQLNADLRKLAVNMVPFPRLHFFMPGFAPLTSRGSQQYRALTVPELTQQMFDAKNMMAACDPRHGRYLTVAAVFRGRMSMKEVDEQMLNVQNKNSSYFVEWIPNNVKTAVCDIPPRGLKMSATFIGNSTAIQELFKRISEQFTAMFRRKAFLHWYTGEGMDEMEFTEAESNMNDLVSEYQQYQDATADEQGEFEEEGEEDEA

IC50, ≤ 100 nM:
O=C(Nc1ccc(OCF)c(N2CCC(F)(F)CC2)c1)c1cnc(S(=O)(=O)NCCO)cc1N1CCC2(CC1)CC2 [Compound 465]
C[C@@H]1CN(c2cc(NC(=O)c3cnc(S(=O)(=O)NCCO)cc3N3CCC4(CC3)CC4)ccc2OCF)CCO1 [Compound 466]
C[C@H]1CN(c2cc(NC(=O)c3cnc(S(=O)(=O)NCCO)cc3N3CCC4(CC3)CC4)ccc2OCF)CCO1 [Compound 467]
O=C(Nc1ccc(OCF)c(N2CC(F)(F)C2)c1)c1cnc(S(=O)(=O)NCCO)cc1N1CCC2(CC1)CC2 [Compound 468]
O=C(Nc1ccc(OCF)c(OCCC(F)(F)F)c1)c1cnc(S(=O)(=O)NCCO)cc1N1CCC2(CC1)CC2 [Compound 469]
O=C(Nc1ccc(OCF)c(N2CCC3(CC3)C2)c1)c1cnc(S(=O)(=O)NCCO)cc1N1CCC2(CC1)CC2 [Compound 470]
O=C(Nc1ccc(OCF)c(OC2CCC2)c1)c1cnc(S(=O)(=O)NCCO)cc1N1CCC2(CC1)CC2 [Compound 471]
CC1(F)CCN(c2cc(NC(=O)c3cnc(S(=O)(=O)NCCO)cc3N3CCC4(CC3)CC4)ccc2OCF)C1 (stereo not shown) [Compound 472]
O=C(Nc1ccc(OCF)c(N2CCC(F)CC2)c1)c1cnc(S(=O)(=O)NCCO)cc1N1CCC2(CC1)CC2 [Compound 473]
O=C(Nc1ccc(OCF)c(N2CC3CC3C2)c1)c1cnc(S(=O)(=O)NCCO)cc1N1CCC2(CC1)CC2 (stereo not shown) [Compound 474]
CC(C)(CO)Nc1cc(NC(=O)c2cnc(S(=O)(=O)NCCO)cc2N2CCC3(CC2)CC3)ccc1OCF [Compound 475]
O=C(Nc1ccc(OCF)c(N2CCOCC2)c1)c1cnc(S(=O)(=O)NCCO)cc1N1CCC2(CC1)CC2 [Compound 476]
C[C@@H](CO)NS(=O)(=O)c1cc(N2CCC3(CC2)CC3)c(C(=O)Nc2ccc(OCF)c(N3CCC(F)(F)CC3)c2)cn1 [Compound 477]
C[C@H](CO)NS(=O)(=O)c1cc(N2CCC3(CC2)CC3)c(C(=O)Nc2ccc(OCF)c(N3CCC(F)(F)CC3)c2)cn1 [Compound 478]
C[C@@H]1CN(c2cc(NC(=O)c3cnc(S(=O)(=O)N[C@@H](C)CO)cc3N3CCC4(CC3)CC4)ccc2OCF)CCO1 [Compound 479]
C[C@H](CO)NS(=O)(=O)c1cc(N2CCC3(CC2)CC3)c(C(=O)Nc2ccc(OCF)c(N3CCO[C@H](C)C3)c2)cn1 [Compound 480]
O=C(Nc1ccc(OCF)c(N2CCC(F)(F)CC2)n1)c1cnc(NS(=O)(=O)CCO)cc1N1CCC2(CC1)CC2 [Compound 481]
C[C@@H]1CN(c2nc(NC(=O)c3cnc(NS(=O)(=O)CCO)cc3N3CCC4(CC3)CC4)ccc2OCF)CCO1 [Compound 482]
C[C@H]1CN(c2nc(NC(=O)c3cnc(NS(=O)(=O)CCO)cc3N3CCC4(CC3)CC4)ccc2OCF)CCO1 [Compound 483]
O=C(Nc1ccc(OCF)c(N2CC(F)(F)C2)n1)c1cnc(NS(=O)(=O)CCO)cc1N1CCC2(CC1)CC2 [Compound 484]
O=C(Nc1ccc(OCF)c(OCCC(F)(F)F)n1)c1cnc(NS(=O)(=O)CCO)cc1N1CCC2(CC1)CC2 [Compound 485]
O=C(Nc1ccc(OCF)c(N2CCC3(CC3)C2)n1)c1cnc(NS(=O)(=O)CCO)cc1N1CCC2(CC1)CC2 [Compound 486]
O=C(Nc1ccc(OCF)c(OC2CCC2)n1)c1cnc(NS(=O)(=O)CCO)cc1N1CCC2(CC1)CC2 [Compound 487]
CC1(F)CCN(c2nc(NC(=O)c3cnc(NS(=O)(=O)CCO)cc3N3CCC4(CC3)CC4)ccc2OCF)C1 (stereo not shown) [Compound 488]
O=C(Nc1ccc(OCF)c(N2CCC(F)CC2)n1)c1cnc(NS(=O)(=O)CCO)cc1N1CCC2(CC1)CC2 [Compound 489]
O=C(Nc1ccc(OCF)c(N2CC3CC3C2)n1)c1cnc(NS(=O)(=O)CCO)cc1N1CCC2(CC1)CC2 (stereo not shown) [Compound 490]
CC(C)(CO)Nc1nc(NC(=O)c2cnc(NS(=O)(=O)CCO)cc2N2CCC3(CC2)CC3)ccc1OCF [Compound 491]
O=C(Nc1ccc(OCF)c(N2CCOCC2)n1)c1cnc(NS(=O)(=O)CCO)cc1N1CCC2(CC1)CC2 [Compound 492]
C[C@@H](CO)S(=O)(=O)Nc1cc(N2CCC3(CC2)CC3)c(C(=O)Nc2ccc(OCF)c(N3CCC(F)(F)CC3)n2)cn1 [Compound 493]
C[C@H](CO)S(=O)(=O)Nc1cc(N2CCC3(CC2)CC3)c(C(=O)Nc2ccc(OCF)c(N3CCC(F)(F)CC3)n2)cn1 [Compound 494]
C[C@@H]1CN(c2nc(NC(=O)c3cnc(NS(=O)(=O)[C@@H](C)CO)cc3N3CCC4(CC3)CC4)ccc2OCF)CCO1 [Compound 495]
C[C@@H]1CN(c2nc(NC(=O)c3cnc(NS(=O)(=O)[C@H](C)CO)cc3N3CCC4(CC3)CC4)ccc2OCF)CCO1 [Compound 496]
O=C(Nc1ccc(OCF)c(N2CCC(F)(F)CC2)n1)c1cnc(S(=O)(=O)NCCO)cc1N1CCC2(CC1)CC2 [Compound 497]
C[C@@H]1CN(c2nc(NC(=O)c3cnc(S(=O)(=O)NCCO)cc3N3CCC4(CC3)CC4)ccc2OCF)CCO1 [Compound 498]
C[C@H]1CN(c2nc(NC(=O)c3cnc(S(=O)(=O)NCCO)cc3N3CCC4(CC3)CC4)ccc2OCF)CCO1 [Compound 499]
O=C(Nc1ccc(OCF)c(N2CC(F)(F)C2)n1)c1cnc(S(=O)(=O)NCCO)cc1N1CCC2(CC1)CC2 [Compound 500]
O=C(Nc1ccc(OCF)c(OCCC(F)(F)F)n1)c1cnc(S(=O)(=O)NCCO)cc1N1CCC2(CC1)CC2 [Compound 501]
O=C(Nc1ccc(OCF)c(N2CCC3(CC3)C2)n1)c1cnc(S(=O)(=O)NCCO)cc1N1CCC2(CC1)CC2 [Compound 502]
O=C(Nc1ccc(OCF)c(OC2CCC2)n1)c1cnc(S(=O)(=O)NCCO)cc1N1CCC2(CC1)CC2 [Compound 503]
CC1(F)CCN(c2nc(NC(=O)c3cnc(S(=O)(=O)NCCO)cc3N3CCC4(CC3)CC4)ccc2OCF)C1 (stereo not shown) [Compound 504]
O=C(Nc1ccc(OCF)c(N2CCC(F)CC2)n1)c1cnc(S(=O)(=O)NCCO)cc1N1CCC2(CC1)CC2 [Compound 505]
O=C(Nc1ccc(OCF)c(N2CC3CC3C2)n1)c1cnc(S(=O)(=O)NCCO)cc1N1CCC2(CC1)CC2 (stereo not shown) [Compound 506]
CC(C)(CO)Nc1nc(C(=O)Nc2cnc(S(=O)(=O)NCCO)cc2N2CCC3(CC2)CC3)ccc1OCF [Compound 507]
O=C(Nc1ccc(OCF)c(N2CCOCC2)n1)c1cnc(S(=O)(=O)NCCO)cc1N1CCC2(CC1)CC2 [Compound 508]
C[C@@H](CO)NS(=O)(=O)c1cc(N2CCC3(CC2)CC3)c(C(=O)Nc2ccc(OCF)c(N3CCC(F)(F)CC3)n2)cn1 [Compound 509]
C[C@H](CO)NS(=O)(=O)c1cc(N2CCC3(CC2)CC3)c(C(=O)Nc2ccc(OCF)c(N3CCC(F)(F)CC3)n2)cn1 [Compound 510]
C[C@@H]1CN(c2nc(NC(=O)c3cnc(S(=O)(=O)N[C@@H](C)CO)cc3N3CCC4(CC3)CC4)ccc2OCF)CCO1 [Compound 511]
C[C@H](CO)NS(=O)(=O)c1cc(N2CCC3(CC2)CC3)c(C(=O)Nc2ccc(OCF)c(N3CCO[C@H](C)C3)n2)cn1 [Compound 512]
O=C(Nc1ccc(NS(=O)(=O)CCO)cc1N1CCC2(CC1)CC2)c1ccc(OCF)c(N2CCC(F)(F)CC2)c1 [Compound 513]
C[C@@H]1CN(c2cc(C(=O)Nc3ccc(NS(=O)(=O)CCO)cc3N3CCC4(CC3)CC4)ccc2OCF)CCO1 [Compound 514]
C[C@H]1CN(c2cc(C(=O)Nc3ccc(NS(=O)(=O)CCO)cc3N3CCC4(CC3)CC4)ccc2OCF)CCO1 [Compound 515]
O=C(Nc1ccc(NS(=O)(=O)CCO)cc1N1CCC2(CC1)CC2)c1ccc(OCF)c(N2CC(F)(F)C2)c1 [Compound 516]
O=C(Nc1ccc(NS(=O)(=O)CCO)cc1N1CCC2(CC1)CC2)c1ccc(OCF)c(OCCC(F)(F)F)c1 [Compound 517]
O=C(Nc1ccc(NS(=O)(=O)CCO)cc1N1CCC2(CC1)CC2)c1ccc(OCF)c(N2CCC3(CC3)C2)c1 [Compound 518]
O=C(Nc1ccc(NS(=O)(=O)CCO)cc1N1CCC2(CC1)CC2)c1ccc(OCF)c(OC2CCC2)c1 [Compound 519]
CC1(F)CCN(c2cc(C(=O)Nc3ccc(NS(=O)(=O)CCO)cc3N3CCC4(CC3)CC4)ccc2OCF)C1 (stereo not shown) [Compound 520]
O=C(Nc1ccc(NS(=O)(=O)CCO)cc1N1CCC2(CC1)CC2)c1ccc(OCF)c(N2CCC(F)CC2)c1 [Compound 521]
O=C(Nc1ccc(NS(=O)(=O)CCO)cc1N1CCC2(CC1)CC2)c1ccc(OCF)c(N2CC3CC3C2)c1 (stereo not shown) [Compound 522]
CC(C)(CO)Nc1cc(C(=O)Nc2ccc(NS(=O)(=O)CCO)cc2N2CCC3(CC2)CC3)ccc1OCF [Compound 523]
O=C(Nc1ccc(NS(=O)(=O)CCO)cc1N1CCC2(CC1)CC2)c1ccc(OCF)c(N2CCOCC2)c1 [Compound 524]
C[C@@H](CO)S(=O)(=O)Nc1ccc(NC(=O)c2ccc(OCF)c(N3CCC(F)(F)CC3)c2)c(N2CCC3(CC2)CC3)c1 [Compound 525]
C[C@H](CO)S(=O)(=O)Nc1ccc(NC(=O)c2ccc(OCF)c(N3CCC(F)(F)CC3)c2)c(N2CCC3(CC2)CC3)c1 [Compound 526]
C[C@@H]1CN(c2cc(C(=O)Nc3ccc(NS(=O)(=O)[C@@H](C)CO)cc3N3CCC4(CC3)CC4)ccc2OCF)CCO1 [Compound 527]
C[C@@H]1CN(c2cc(C(=O)Nc3ccc(NS(=O)(=O)[C@H](C)CO)cc3N3CCC4(CC3)CC4)ccc2OCF)CCO1 [Compound 528]
